{"source": "patent US20080269177A1", "about": "“PESTICIDAL COMPOSITIONS” (ECOSMART TECHNOLOGIES, INC., priority 2007, published 2008)", "origin": "cited, not measured here", "key": {"[1]": {"settings": "even at the lowest doses, 30 mg/kg/day"}, "[2]": {"settings": "even treatments as low as 1.2%"}}}
{"smiles": "CCCCOCCOCCOCc1cc2c(cc1CCC)OCO2", "note": "[PBO, piperonyl butoxide]", "values": [{"measurement": "liver weights in chronic toxicity studies", "setting": "[1]", "value": "increased liver weights"}, {"measurement": "tumour finding in animal studies", "setting": "[2]", "value": "hepatocellular carcinomas"}]}
